Patent US20250163056A1, “NONMUSCLE MYOSIN II INHIBITORS” (The University of Florida Research Foundation, Inc., priority 2018, published 2025)

Key:
[1] = target: Bovine cardiac myosin (Bos taurus (Bovine), UniProt Q9BE39); assay: Cardiac muscle myosin II actin-activated ATPase assay (NADH-coupled); assay type: biochemical; design: key to Ratio CMMII:NMII Ki/EC50: NMII-sel: no Ki value for cardiac myosin II could be determined; the compounds had no detectable inhibitory properties versus the cardiac myosin II; conditions: for Ratio CMMII:NMII Ki/EC50: cardiac myosin II Ki over nonmuscle myosin II EC50; for Ki: 300 nM cardiac myosin, 10 μM actin, 25° C., read-out: CMMII KI
Chain of Bovine cardiac myosin (Q9BE39 whole entry): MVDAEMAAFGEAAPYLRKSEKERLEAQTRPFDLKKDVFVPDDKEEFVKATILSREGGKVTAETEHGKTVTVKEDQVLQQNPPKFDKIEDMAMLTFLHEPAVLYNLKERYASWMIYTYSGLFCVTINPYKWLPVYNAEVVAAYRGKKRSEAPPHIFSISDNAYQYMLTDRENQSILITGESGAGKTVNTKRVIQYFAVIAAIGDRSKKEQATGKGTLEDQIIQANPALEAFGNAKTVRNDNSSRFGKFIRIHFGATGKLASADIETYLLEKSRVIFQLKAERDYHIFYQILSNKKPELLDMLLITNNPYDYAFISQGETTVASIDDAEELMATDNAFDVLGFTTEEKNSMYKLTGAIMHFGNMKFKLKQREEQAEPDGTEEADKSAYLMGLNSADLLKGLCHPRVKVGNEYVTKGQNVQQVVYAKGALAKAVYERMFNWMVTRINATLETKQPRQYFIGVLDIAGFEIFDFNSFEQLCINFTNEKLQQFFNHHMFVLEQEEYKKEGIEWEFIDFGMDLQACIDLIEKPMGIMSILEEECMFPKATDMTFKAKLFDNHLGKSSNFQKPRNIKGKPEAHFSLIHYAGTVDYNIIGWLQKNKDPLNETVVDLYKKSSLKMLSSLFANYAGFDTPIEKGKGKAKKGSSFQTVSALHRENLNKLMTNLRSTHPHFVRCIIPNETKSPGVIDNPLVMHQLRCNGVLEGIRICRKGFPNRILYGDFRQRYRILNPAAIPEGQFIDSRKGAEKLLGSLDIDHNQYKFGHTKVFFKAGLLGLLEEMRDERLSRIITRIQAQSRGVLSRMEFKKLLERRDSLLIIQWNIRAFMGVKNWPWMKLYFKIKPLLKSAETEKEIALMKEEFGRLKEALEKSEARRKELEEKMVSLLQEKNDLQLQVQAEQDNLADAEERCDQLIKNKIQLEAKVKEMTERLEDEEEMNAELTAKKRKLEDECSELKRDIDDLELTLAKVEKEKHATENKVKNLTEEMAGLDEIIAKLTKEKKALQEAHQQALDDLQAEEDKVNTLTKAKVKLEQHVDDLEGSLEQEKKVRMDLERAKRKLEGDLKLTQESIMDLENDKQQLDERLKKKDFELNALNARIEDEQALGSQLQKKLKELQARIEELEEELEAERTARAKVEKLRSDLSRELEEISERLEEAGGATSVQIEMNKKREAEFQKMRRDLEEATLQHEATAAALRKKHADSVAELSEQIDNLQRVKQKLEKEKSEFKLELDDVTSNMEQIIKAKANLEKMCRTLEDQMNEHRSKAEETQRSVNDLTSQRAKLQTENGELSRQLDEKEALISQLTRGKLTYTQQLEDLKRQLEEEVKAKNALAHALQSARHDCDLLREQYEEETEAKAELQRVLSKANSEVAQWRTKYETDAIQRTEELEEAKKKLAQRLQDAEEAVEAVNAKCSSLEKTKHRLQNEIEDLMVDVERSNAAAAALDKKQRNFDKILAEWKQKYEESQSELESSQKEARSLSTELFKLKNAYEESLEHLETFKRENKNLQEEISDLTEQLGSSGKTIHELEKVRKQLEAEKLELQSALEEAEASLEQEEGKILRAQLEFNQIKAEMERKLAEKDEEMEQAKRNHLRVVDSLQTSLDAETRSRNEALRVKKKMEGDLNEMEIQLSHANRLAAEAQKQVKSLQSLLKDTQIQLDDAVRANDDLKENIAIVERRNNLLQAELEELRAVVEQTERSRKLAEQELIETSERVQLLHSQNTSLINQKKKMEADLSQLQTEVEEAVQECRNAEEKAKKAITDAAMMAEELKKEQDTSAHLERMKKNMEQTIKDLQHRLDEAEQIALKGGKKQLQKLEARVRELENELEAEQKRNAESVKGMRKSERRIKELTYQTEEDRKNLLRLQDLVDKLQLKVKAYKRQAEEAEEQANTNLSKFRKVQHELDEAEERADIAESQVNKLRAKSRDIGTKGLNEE
Chain of Bovine cardiac myosin (P85100 whole entry partner): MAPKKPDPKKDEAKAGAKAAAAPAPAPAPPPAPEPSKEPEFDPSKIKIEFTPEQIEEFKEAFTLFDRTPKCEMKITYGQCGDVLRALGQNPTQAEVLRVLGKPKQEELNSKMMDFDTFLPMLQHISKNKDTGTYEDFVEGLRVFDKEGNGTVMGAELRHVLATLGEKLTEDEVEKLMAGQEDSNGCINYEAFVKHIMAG
Chain of Bovine cardiac myosin (Q3SZE5 whole entry partner): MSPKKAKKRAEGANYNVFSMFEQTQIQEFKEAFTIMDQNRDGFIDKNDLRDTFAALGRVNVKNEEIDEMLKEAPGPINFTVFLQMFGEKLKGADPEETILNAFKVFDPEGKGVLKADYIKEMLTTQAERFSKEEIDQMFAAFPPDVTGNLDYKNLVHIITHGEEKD
In short: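 Inhibitory constants came from a quadratic one-to-one binding fit of 16-point dose-responses (highest final 50 uM, triplicate). Rates were NADH-calibrated fluorescence slopes over 30 min at 25° C, with 300 nM bovine cardiac myosin, 10 μM actin and 1 mM ATP coupled through PK/LDH in pH 7.0 MOPS buffer.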

[2] = target: Rabbit skeletal myosin; assay: Skeletal muscle myosin II actin-activated ATPase assay; assay type: biochemical; conditions: 20 nM skeletal muscle myosin II; read-out: SKMMII KI
In short: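 Inhibitory constants come from a quadratic one-site fit of 16-point, triplicate dose-response data, highest compound concentration 50 uM. Rates are slopes of NADH fluorescence decline over 30 min, coupling ATP turnover of 20 nM rabbit skeletal myosin II with 10 μM actin and 1 mM ATP via PK/LDH, pH 7.0, 25 °C.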

[3] = Photostability, percentage remaining undegraded under illumination or in the dark; conditions: for Photostability 4 hours: percentage remaining undegraded after 4 hours illumination; for Photostability 24 hours: percentage remaining undegraded after 24 hours illumination; for Photostability Dark (24 h): percentage remaining undegraded in the dark

Compound | Ratio CMMII:NMII Ki/EC50 [1] | Ki [2] [µM] | Photostability 4 hours [3] [%] | Photostability 24 hours [3] [%] | Photostability Dark (24 h) [3] [%] | Ki [1] [µM]
CCc1ccc2cc(N3CC[C@@]4(O)C(=O)c5cc(C)c(C)cc5N=C34)ccc2n1 [BPN-0028867] | NMII-sel | 1.3 | 69.9 | 1 | 98.7 | 
Cc1ccc2c(c1)C(=O)[C@]1(O)CCN(c3ccc4ccoc4c3)C1=N2 [BPN-0026285] | 5.7 | 0.9 | 51.9 | 8.2 | 94.7 | 9.1
Cc1ccc2c(c1)C(=O)[C@]1(O)CCN(c3ccn4nccc4c3)C1=N2 [BPN-0027396] | 5.3 | 1.1 | 85.5 | 23.5 | >99 | 9.5
Cc1cccc(N2CC[C@@]3(O)C(=O)c4cc(F)c(C)cc4N=C23)c1 [BPN-0026620] | NMII-sel | 16 | 94.1 | 27.8 | 92.8 | 
Cc1ccc2cc(N3CC[C@@]4(O)C(=O)c5cc(C)c(C)cc5N=C34)ccc2n1 [BPN-0027490] | NMII-sel | 0.41 | 80.8 | 6.8 | 98.5 | 
Cc1ccc2c(c1)C(=O)[C@]1(O)CCN(c3ccc(C)c(Cl)c3)C1=N2 [BPN-0025254] | NMII-sel | 7.7 | 92.5 | 39.4 | >99 | 
Cc1cc2c(cc1C)C(=O)[C@]1(O)CCN(c3ccc4ncccc4c3)C1=N2 [BPN-0027215] | NMII-sel | 1 | 73.2 | 9.2 | 97.3 | 
Cc1cc2c(cc1C)C(=O)[C@]1(O)CCN(c3ccc4c(c3)CCCC4)C1=N2 [BPN-0028923] | 8.6 | 6 | 77.5 | 1 | 98.1 | 30
COc1cccc(N2CC[C@@]3(O)C(=O)c4cc(C)c(C)cc4N=C23)c1 [BPN-0026496] | 31.9 | 15 | 41.7 | 3.5 | 97.9 | 83
Cc1ccc2c(c1)C(=O)[C@]1(O)CCN(c3ccc(C)c(C)c3)C1=N2 [BPN-0025903] | NMII-sel | 11 | 39.8 | 7.5 | 98.3 | 
Cc1cc(N2CC[C@@]3(O)C(=O)c4cc(Cl)ccc4N=C23)ccc1C#N [BPN-0026457] | NMII-sel | 15 | 98.6 | 77.1 | >99 | 
Cc1cc2c(cc1C(F)(F)F)N=C1N(c3ccc4ccoc4c3)CC[C@@]1(O)C2=O [BPN-0027108] | NMII-sel | 10 | >99 | 97.0 | >99 | 
Cc1ccc2c(c1)C(=O)[C@]1(O)CCN(c3ccc(Cl)c(C)c3)C1=N2 [BPN-0026325] | NMII-sel | 13 | 89.0 | 14.0 | 97.8 | 
Cc1cc2c(s1)N=C1N(c3cccc(Br)c3)CC[C@@]1(O)C2=O [BPN-0026624] | 14.0 | 24 | 90.5 | 88.2 | 92.2 | 210
Cc1cc2c(s1)N=C1N(c3ccc(C#N)c(C)c3)CC[C@@]1(O)C2=O [BPN-0026576] | 3.3 | 4.6 | 98.6 | >99 | >99 | 18
Cc1cc2c(cc1C)C(=O)[C@]1(O)CCN(c3ccc4c(c3)NCCO4)C1=N2 [BPN-0028790] | 3.8 | 1 | 92.7 | 64 | 95.3 | 2.4
Cc1nc2cc(N3CC[C@@]4(O)C(=O)c5cc(F)c(C)cc5N=C34)ccc2o1 [BPN-0027198] | 3.6 | 0.88 | 89.9 | 21.4 | >99 | 10.5
COc1cccc(N2CC[C@@]3(O)C(=O)c4cc(F)c(C)cc4N=C23)c1 [BPN-0026618] | 3.8 | 5.9 | 92.3 | 17.2 | 96.6 | 18
Cc1ccc(N2CC[C@@]3(O)C(=O)c4cc(C)c(C(F)(F)F)cc4N=C23)cc1 [BPN-0026819] | 27.8 | 1.7 | 96.6 | 84.8 | 97.3 | 50
Cc1ccc2c(c1)C(=O)[C@]1(O)CCN(c3ccc4ncsc4c3)C1=N2 [BPN-0027036] | 7.3 | 4.9 | 90.2 | 24.7 | 97.4 | 22
